Test results reported in publication PMC7864055, “Biochemical and biophysical analyses of hypoxia sensing prolyl hydroxylases from Dictyostelium discoideum and Toxoplasma gondii” (The Journal of Biological Chemistry, 2021).

Columns and labels:
TgPhyA [1] = biological target: T1, TgPhyA (Toxoplasma gondii, UniProt A0A7J6K353); assay: 1H NMR of 2OG conversion to succinate; format: biochemical; settings: uncoupled (no Skp1); enzyme 20 μM, 2OG 500 μM, Fe(II) 50 μM, ascorbate 1 mM, Tris-D11 pH 7.5, room temperature
T1 construct: gene TGRH88_076950; full-length, recombinant; purification in Supporting information
T1 sequence (A0A7J6K353 1-271): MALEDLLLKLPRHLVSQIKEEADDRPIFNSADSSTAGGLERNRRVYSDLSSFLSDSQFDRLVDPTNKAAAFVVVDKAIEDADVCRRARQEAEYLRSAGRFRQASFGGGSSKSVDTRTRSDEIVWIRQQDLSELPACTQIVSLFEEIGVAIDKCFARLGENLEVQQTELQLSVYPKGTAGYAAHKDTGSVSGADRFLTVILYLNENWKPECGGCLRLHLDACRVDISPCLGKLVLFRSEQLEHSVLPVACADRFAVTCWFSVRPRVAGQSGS

TgPhyA [2] = biological target: T1, TgPhyA; assay: differential scanning fluorimetry, SYPRO Orange; format: binding; settings: with metal (Ni(II)); 25-80 °C
DdPhyA = biological target: T2, DdPhyA (Dictyostelium discoideum, UniProt Q86KR9); assay: differential scanning fluorimetry, SYPRO Orange; format: binding; settings: with metal (Ni(II)); 25-80 °C; construct (full-length or truncated) not told in main text
T2 construct: gene phyA; full-length aa 1-284, E. coli BL21 Gold (DE3), N-terminal His6-ZBasic tag cleaved by TEV, EDTA-treated to remove metal

DdPhyA(60-284) = biological target: T3, DdPhyA(60-284) (Dictyostelium discoideum, UniProt Q86KR9); assay: X-ray crystallography, […] Å; format: binding; settings: Ni(II) in place of Fe(II); active site, bidentate to metal, no Skp1 substrate
T3 construct: gene phyA; catalytic domain residues 60-284 (once printed 60-286), E. coli, His6-ZBasic tag cleaved; 3 molecules per asymmetric unit; Ni(II) substituting for Fe(II)
Text: The C-5 carboxylate of NOG is bound

T3 sequence (Q86KR9 60-284): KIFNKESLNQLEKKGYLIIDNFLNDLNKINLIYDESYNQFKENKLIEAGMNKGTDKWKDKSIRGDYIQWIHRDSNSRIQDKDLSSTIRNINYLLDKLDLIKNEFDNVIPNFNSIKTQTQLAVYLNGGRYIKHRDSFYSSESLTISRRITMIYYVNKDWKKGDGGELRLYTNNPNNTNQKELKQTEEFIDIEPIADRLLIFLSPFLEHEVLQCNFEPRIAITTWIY
T2 sequence (Q86KR9 whole entry, the tested form may be a part): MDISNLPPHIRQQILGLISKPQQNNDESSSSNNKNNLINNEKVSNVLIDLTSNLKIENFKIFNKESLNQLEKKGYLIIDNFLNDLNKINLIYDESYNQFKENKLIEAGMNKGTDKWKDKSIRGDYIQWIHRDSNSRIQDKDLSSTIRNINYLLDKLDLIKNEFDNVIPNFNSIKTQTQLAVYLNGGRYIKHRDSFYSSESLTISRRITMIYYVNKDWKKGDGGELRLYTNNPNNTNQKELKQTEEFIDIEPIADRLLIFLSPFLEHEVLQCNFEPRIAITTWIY

| Compound | 2OG turnover (TgPhyA [1]) | Tm shift (TgPhyA [2]) | Tm shift (DdPhyA) | X-ray crystallography, 2.02 Å (DdPhyA(60-284)) |
| --- | --- | --- | --- | --- |
| O=C(O)CCC(=O)C(=O)O [2OG] | TgPhyA exhibited substantial uncoupled 2OG turnover in the absence of substrate | – | – | – |
| O=C(O)CNC(=O)C(=O)O [NOG] | – | Ni(II) ions and N-oxalylglycine (a stable 2OG analog, Fig. S9) stabilize the enzymes | Ni(II) ions and N-oxalylglycine (a stable 2OG analog, Fig. S9) stabilize the enzymes | the latter in a bidentate manner. The C-5 carboxylate of NOG is bound |
